In test [1] the test system is Wnt induced calcium release. In words: Wnt induced [Ca2+]i release after preincubation with thapsigargin or membrane potential regulating compounds. It counts as cell-based. As to the method:
The imaging protocol was developed in the inventor's laboratory and has been described in detail, elsewhere (Wang at al., (2010) PLoS ONE 5, e10456). Briefly, 100000-200000 PC3, MCF7, 253J or Cos 7 cells were plated on 35 mm FluoroDish (WPI) and grown for 48 h; calcium indicators Fluo-4 (Invitrogen) and FuraRed (Invitrogen) at 1 ng/ml were added to FluoroDish containing only 1 ml of culture medium and incubated for 15-20 min at 37° C. The culture medium was removed and washed (×2) and replaced with 1 ml PBS. Live cell calcium Imaging was performed on an Olympus FluoView FV 1000 confocal microscope (Olympus KeyMed) equipped with a 20× dry objective (numerical aperture=0.75). Calcium indicators were excited with an argon laser line (488 nm) and emissions recorded in the green channel (500-560 nm) for Fluo-4 and red channel (600-700 nm) for FuraRed after addition of vehicle control (PBS) or Wnt X (30-600 ng/ml). Images were acquired every 1.1 or 2.2 seconds for up to 600-800s; image and data acquisition was performed using FluoView 1000 software (Olympus, UK). Fluorescent intensity was measured and data exported as a tab delimited file for further analysis using a spreadsheet. All imaging experiments were performed in duplicate; intracellular calcium at 100 ng/ml was measured in at least 3-12 different passages (passage numbers 25 to 37) of cell line for each Wnt ligand. Wnt 11 was tested in at least 5 different passages at 3 different concentrations. […]
To measure the effect of changes in membrane potential on [Ca^2+]i release using the protocol described above, in some experiments, external solution (PBS) was substituted with varying concentrations of KCl. In other experiments chemical inhibitors of K^+ channels such as TEA, CsCl or tolbutamide (Sigma-Aldrich) were added to the cells grown on FluoroDish, at 37° C., at least 5 min prior to addition of Wnt ligands.
After image acquisition, regions of interest (ROI) were drawn over individual PC3 cells (up to 25) in a single frame and calcium intensity measurements were made using FluoView 1000 software (Olympus, UK). The measurements were exported as a tab delimited file into a spreadsheet for further analysis and Fluo4/Fura Red ratios were calculated. The waveform, a product of the ratio of Fluo4 and FuraRed over the period of measurement was used to measure the kinetics of the activation of [Ca^2+]i release in PC3 cells, in response to different Wnt ligands. The time constants (rise, dwell and fall times) were calculated by first fitting the Fluo4/FuraRed ratio to a single Gaussian function (Origin Lab Corp., MA); a lower (10%) and upper (90%) amplitude thresholding method was then used to calculate the time constants (s). Statistical significance was calculated using Mann Whitney U test.

Test [2] concerns β-catenin translocation to the nucleus. Nature of the test: β-catenin immunocytochemistry and nuclear co-localization analysis, PC3. The conditions noted are these: PC3 cells, K+ channel inhibitors 1-15 mM, Wnt5A and 9B. The test is classed as cell-based. As to the method:
Immunostaining was performed in two different laboratories, independently with the experimenter blind to the identity of the treatment. Either cells used in FluoroDish, post [Ca^2+]i experiments using dyes (see above) or grown in 8 well chamber glass slides (Lab Tek II, Nunc) were used. For Wnt ligand treatment, the culture medium replaced with PBS (without calcium) at 37° C. The experiments were replicated for Wnt ligand or vehicle control as described for [Ca^2+]i measurements. Briefly, Wnt ligands were added and chamber slides incubated at 37° C. for up to 20 min. Chamber wells were washed 3× with 0.5 ml PBS and cells were fixed with 0.5 ml 4% formalin for 30 min at 4° C. Cells were washed 3× with ice cold PBS and stored in 0.5 ml PBS at 4° C. for immunostaining. In some experiments PC3 cells were treated with thaspsigargin as described above.
For immunostaining cells were washed twice for 5 minutes in TBST (20 mM Tris pH 7.4, 0.9% NaCl, 0.1% Tween 20, Sigma). Cells were then incubated in 20% normal goat serum (NGS)/TBST for 30 min at room temperature, the chambers were drained and cells were incubated with mouse anti-β-catenin (ab22656, Abcam, UK) at 1:500 dilution in NGS/TBST overnight at 4° C. Following two further 5 min washes in TBST sections were incubated in goat anti-mouse peroxidase fab (Abcam, UK) at 1:500 dilution for 30 min at room temperature. Following a further two 5 min washes in TBST cells were incubated with tyramide Cy3 (Perkin Elmer) for 10 min at room temperature. Sections were washed twice for 5 min in TBST before nuclear counterstaining with DAPI. After a final two 5 min washes, the chambers were removed and cover slip placed on slides using Permafluor (Thermo Shandon).
Fluorescence immunocytochemical staining for β-catenin expression in cell lines was imaged using Olympus Fluoview 1000 Confocal Microscope (Olympus KeyMed) mounted on an Olympus IX81 inverted microscope using a 20×0.7 NA or 40×1.0 NA dry objective with a zoom of ×3.4′,6-diamidino-2-phenylindole (DAPI, nuclear counterstain) was excited at 405 nm with an emission of 415-500 nm; Cy3 (β-catenin label) signal was excited at 561 nm with an emission spectrum between 570-670 nm. […] Z-stacks of at least 3 fields per sample were imaged and saved in Olympus FV (OIF or OIB) file format.
Nuclear co-localization of β-catenin was calculated by importing FV files for untreated, control or treated cells, into colocalization plugin of Fiji software (http://fiji.sc/Fiji) for Cy3 (β-catenin) and DAPI (nuclear) signals. Pearson co-relation of colocalization were tabulated for 25-90 cells (from 2-5 different passages of cells) using ROI analysis. Statistical significance between untreated and treated cells was calculated using Mann Whitney U test.

Test [3] concerns PC3 prostate cancer cell line. In words: Cell proliferation assay, live imaging (Incucyte), PC3. The test is classed as cell-based. The protocol:
Growth curve was monitored at 37° C. in a CO2 incubator by using time lapse imaging with Incucyte (Essen Biosciences) for up to 150 h after plating the cells (t=o) at a density of 25-100 k cells per well in a 6 well plate (Nunc). MPRCs were added at the stated concentrations 24 h after cell plating;
A live imaging system (Incucyte, EssenBiosciences) was used to measure the effect of K^+ channel inhibitors on the rate of cell proliferation. PC3 cells were plated on 6 well plates (Nunc) in 3 ml culture medium (Wang et al (2010) PLoS ONE 5, e10456); K^+ channel inhibitors were added to the wells at 0-15 mM. The plates were placed in Incucyte in a standard cell culture incubator at 37° C. and CO2. Each well was imaged at an interval of up to 4 h and rate of cell proliferation was calculated from these images using Incucyte software.

Test [4] relates to MCF7 breast cancer cell line. Nature of the test: Cell growth, time lapse imaging (Incucyte), MCF7. The test is classed as cell-based, human. The conditions noted are these: MCF7 cells, nicorandil shown as an example. As to the method: Growth curve was monitored at 37° C. in a CO2 incubator by using time lapse imaging with Incucyte (Essen Biosciences) for up to 150 h after plating the cells (t=o) at a density of 25-100 k cells per well in a 6 well plate (Nunc). MPRCs were added at the stated concentrations 24 h after cell plating.

The mark [5] stands for this setting: preincubation 5 min, Wnt 9B 0.1 μg/ml as example, CsCl 5 mM, CdCl2 1 mM, TEA 10 mM, Amiodarone 75 μM, Tolbutamide 1 mM, Isradipine 100 μM, Nifedipine 1 mM, Minoxidil 25 μM, Atenolol 37.5 μM, Propanolol 50 μM, Furosemide 150 μM.
Setting [6] is: PC3 cells, inhibitors at 0-15 mM.

Each structure is given as a SMILES string. “Also recorded” adds a separate entry of the source. Read-outs that look alike come from different tables or passages of the source.

Regarding `CCCCNC(=O)NS(=O)(=O)c1ccc(C)cc1` [Tolbutamide], in test [1] (setting [5]), the “Wnt ligand induced calcium release after preincubation with MPRC (FIG. 16)” value (“Wnt ligand induced calcium release” below) is “inhibited”. Besides, the “Wnt mediated β-catenin stabilization and translocation to the nucleus (FIG. 11)” value in test [2] is given as “reduced; also recorded: inhibition”. Besides, the “rate of cell proliferation (confluence of cell growth, FIG. 12)” value (“rate of cell proliferation” below) in test [3] (setting [6]) is “inhibit proliferation”; in test [3] (PC3 cells, inhibitors at 0-15 mM, listed as tolbutamide), “inhibition”.
On to `[Cl-].[Cs+]` [CsCl], for which the “Wnt ligand induced calcium release” value in test [1] (setting [5]) was “inhibited”. The “Wnt mediated β-catenin stabilization and translocation to the nucleus (FIG. 11)” value in test [2] is “reduced”. The “rate of cell proliferation” value in test [3] (setting [6]) is “inhibit proliferation”.
On to `CC[N+](CC)(CC)CC` [TEA, tetraethylammonium], for which, in test [1], the “Wnt induced [Ca2+]i release after pre-incubation with K+ channel blocker (FIG. 11)” value is “reduced; also recorded: abolished” and the “Wnt ligand induced calcium release” value is given as “inhibited”. Also, the “Wnt mediated β-catenin stabilization and translocation to the nucleus (FIG. 11)” value in test [2] is recorded as “reduced; also recorded: biggest reduction”. Also, the “rate of cell proliferation” value in test [3] was “inhibit proliferation”.
As to `[Cl][Cd][Cl]` [CdCl2], the “Wnt ligand induced calcium release” value in test [1] (setting [5]) is recorded as “inhibited”.
Same read-out and setting: next, `CC(C)NCC(O)COc1cccc2ccccc12` (centres unmarked) [Propanolol]: “inhibited”.
Regarding `CCCCc1oc2ccccc2c1C(=O)c1cc(I)c(OCCN(CC)CC)c(I)c1` [Amiodarone], in test [1] (setting [5]), the “Wnt ligand induced calcium release” value is reported as “inhibited”.
For `O=C(NCCO[N+](=O)[O-])c1cccnc1` [Nicorandil], the “Wnt signaling measured using intracellular calcium release (FIG. 22 A and B)” value in test [1] is “do not inhibit”. For the same compound, the “cell proliferation (FIG. 22 C)” value in test [3] (PC3 cells, Incucyte, nicorandil shown as an example) is given as “do not inhibit”. In addition, the “cell proliferation (FIG. 22 D)” value in test [4] is given as “do not inhibit”.

Values taken from US20160271157A1, “BETA-CATENIN” (UCL BUSINESS PLC, priority 2013, published 2016).
